The structures appear in SMILES notation.

As usually defined, the melting point is the temperature, or range, at which the solid turns liquid.

`CC(C)(C)c1ccc(OCCC(=O)O)c(C(C)(C)C)c1` returned a melting point of 105 to 106 °C.

For the compound `Clc1cccc(-c2ncoc2-c2ccncc2)c1`, the melting point was in the range of 125 to 126 °C.

Take `CCNC(=O)Nc1ccc(C#Cc2ccc(N3CC4CCC(C3)N4C)nn2)cc1`: the melting point is 269 °C.

Compound `CCCOc1ccc(S(=O)(=O)N2CC[C@@H](N(C)C)C2)cc1-c1nc2cc3ncn(Cc4ccc(F)cc4)c3cc2c(=O)[nH]1` had a melting point of 223 to 225 °C.

As for `CCOc1cc(N)c(Cl)cc1C(=O)NC1CCN(CC2CCN(C(=O)CCOC)CC2)CC1`, the melting point lay within 175 to 177 °C.

Consider `Nc1nc(NC2CCC2)c2ncn(C3C=CC(CO)C3)c2n1` (stereo unspecified), for which the melting point is 181 to 183 °C.

In turn, `CC(C)c1ccc(CCOc2ccnc3c(F)cccc23)cc1` had a melting point of 56 to 60 °C.

For `O=C(CN1c2nc(-c3ccncc3)cc(=O)n2CCC12CC2)c1ccccc1`, the melting point is 232 to 234 °C.

Take `COC(=O)c1ccc2c(c(C)nn2C)c1C1=NC(C)(C(C)C)C(=O)N1` (stereo unspecified): the melting point was in the range of 130 to 150 °C.

The compound `O=C(Nc1ccc(C2=CCN(C(=O)Nc3ccc(OCCO)cc3Cl)CC2)cc1)Nc1ccccc1F` showed a melting point of 173 to 178 °C.

Regarding `O=C(COc1ccccc1)NCCCn1ccnc1`, the melting point was 91 to 93 °C.

`CCc1nc2c(N)nc3cc(OCCc4c[nH]c5ccccc45)ccc3c2s1`: the melting point was in the range of 218 to 220 °C.

`Cc1cc2c(nc(C)n2-c2ccc(C#N)cc2)c(C)n1` returned a melting point of 260 to 262 °C.

`CCCC(CCC)(CCC)C(N)=O` came in with a melting point of 69 °C.

Compound `CCN1c2ncccc2C(=O)N(C)c2ccc(-c3cnn(C)c3)nc21` yielded a melting point of 65 to 67 °C.

Compound `CCSc1nc(C#N)c(C#N)nc1C` showed a melting point of 91.5 to 92.5 °C.

As to `COCCOc1ccc2c(c1)OCC21C(=O)N(Cc2ccccn2)c2ccccc21` (stereo unspecified), the melting point lay within 94 to 95 °C.

`CSc1cc(C)nc(SC)c1NC(=O)CBr` had a melting point of 171 to 172 °C.

With `O=C(c1ccc(OC[C@H](O)CO)cc1)c1ccc([N+](=O)[O-])cc1`, the melting point was in the range of 104 to 105 °C.

Turning to `O=C1CNC2=C(CCc3cc(F)ccc32)C1`, the melting point is 223 to 224 °C.

Turning to `CCCCNc1nc2cnnc(Cl)c2cc1C(=O)OCC`, the melting point came out at 127 °C.

Compound `O=C1NC(=O)C2(O1)C(=O)N(Cc1ccc(Cl)c(Cl)c1)c1c(F)cccc12` (stereo unspecified) displayed a melting point of 101 to 102 °C.

`CC1CC2=CC(=O)CCC2C2CCC3(C)C(O)CCC3C12` (stereo unspecified) registered a melting point of 144 to 146 °C.

`CCCCCCCCCCCc1ccc(CCCC(N)(CO)CCO)cc1` (stereo unspecified) gave a melting point of 73 to 76 °C.

Regarding `C[C@@H]1[C@H](c2ccccc2)OC(=O)N1C(=O)CCc1ccccc1`, the melting point lay in the range of 99 to 100 °C.

`COc1ccc(C(=O)C=Cc2ccc([N+](=O)[O-])cc2)cc1`: the melting point was 171 to 173 °C.

`NCCSc1ncccc1C(O)c1ccccc1` (stereo unspecified): the melting point was in the range of 118 to 120 °C.

As for `COc1ccccc1N1CCN(C(=O)c2ccccc2C(c2ccc(O)cc2)c2ccc(O)cc2)CC1`, the melting point lay in the range of 229 to 231 °C.

In turn, `CCCCCN1C(=O)C(NC(=O)OC(C)(C)C)c2ccccc21` (stereo unspecified) showed a melting point of 145 to 147 °C.

Regarding `CCCCS(=O)(=O)c1c(-c2ccccc2)nn(C)c1-c1ccccc1`, the melting point was 92.5 to 93 °C.

Consider `CON(C)C(=O)Nc1ccc(OCc2nc(Cl)ccc2Cl)cc1`, for which the melting point lay within 152 to 154 °C.

`NC(=O)c1ccc(N2CCN(CCC3C=Cc4ccccc43)CC2)cc1` (stereo unspecified) yielded a melting point of 207 °C.

In turn, `CC(C)NC(=O)c1ccc(-c2cnc3[nH]c(=O)n(CC4CCCCC4)c3n2)cc1` returned a melting point of 264 to 268 °C.

Take `CCCCCCCCCCCCCCCCO[C@@H]1CCCO[C@H]1COCc1ccccc1` (relative stereo): the melting point lay in the range of 28.5 to 29.5 °C.

For `O=C(C=Cc1ccccc1C(F)(F)F)C=Cc1ccccc1C(F)(F)F`, the melting point lay within 131 to 133 °C.

`COc1c(C=O)cc(Cl)c(Cl)c1OC`: the melting point was in the range of 75 to 77 °C.

`Cc1cc(Oc2ccc(C(F)(F)F)cc2[N+](=O)[O-])nn1C(=O)NC(C)(C)C`: the melting point was 104 to 106 °C.

`CCCCOc1nc2cccc(C(=O)OC)c2n1Cc1ccc(-c2ccccc2C#N)cc1` registered a melting point of 74 to 75 °C.

In turn, `COC(=O)/C=C/c1ccc(/C=C/c2ccncc2)nc1` had a melting point above 143 °C.

Compound `CS(=O)(=O)c1ccc(-c2cc(=O)cc(C(=O)O)o2)cc1` showed a melting point of 269 to 271 °C.

`NC(=O)c1c(F)ccc(OCc2nc3cc(Br)ccc3s2)c1F` had a melting point of 244 to 246 °C.

In turn, `CCCCCCCC(=O)Nc1ccc2c(C(F)(F)F)cc(=O)oc2c1` returned a melting point of 137 °C.

As to `Sc1nnc(-c2ccc3ncsc3c2)o1`, the melting point lay in the range of 274 to 275 °C.

Consider `CNC(=O)ON=C1SCC(=O)N1C(C)C`, for which the melting point was 94 to 96 °C.

As to `O=[N+]([O-])c1ccc(-c2ccc([N+](=O)[O-])cc2C(F)(F)F)c(C(F)(F)F)c1`, the melting point is 140 °C.

For the compound `CN1CCN(C(=O)C(C)(C)OCc2nn(Cc3ccccc3)c3ccccc23)CC1`, the melting point is 97 to 98 °C.

Compound `C/C(=C\c1ccc(C(=O)O)cc1)c1ccc(O)c(C(C)(C)C)c1` returned a melting point of 209 °C.

In turn, `CCCc1nc2c(C)cc(C)nc2n1Cc1ccc2oc(-c3ccccc3C(=O)O)nc2c1` came in with a melting point of 150 to 160 °C.

The compound `CC1(C)OC(=S)Nc2ccc(-c3csc(C#N)c3)cc21` yielded a melting point of 242 to 243 °C.

`O=C1Nc2cccnc2N(C(=O)NCCN2CCCCC2CCCCN2CCCCC2)c2ccccc21` (stereo unspecified) gave a melting point of 154 to 155 °C.

With `Cc1ccccc1C(Oc1cc(OCc2ccccc2)ccc1C#N)C(=O)O` (racemic), the melting point lay within 128 to 130 °C.

Turning to `Cc1ccc2c(c1NC(=O)CC1c3ccccc3Oc3ccccc31)OC(C)C2` (stereo unspecified), the melting point is 290 to 291 °C.

For `CCOC(=O)c1ccc(NC2(C(N)=O)CCCCC2)cc1`, the melting point was 155 to 157 °C.

For the compound `CCOC(=O)c1c[nH]c2nc(N3CCN(C(=O)OCC)CC3)c(F)cc2c1=O`, the melting point was 279 to 281 °C.

For the compound `CC(NC(Nc1ccc2c(c1)OCO2)=C(C#N)S(=O)(=O)c1ccc(Cl)cc1)C(C)(C)C` (stereo unspecified), the melting point lay within 160 to 162 °C.

`Cc1c(C(=O)O)nc2c(=O)[nH]c3cc(S(C)(=O)=O)ccc3n12` came in with a melting point of 228 °C.

Regarding `CN(Cc1ccc(NC(=O)C2=Cc3cc(-c4ccc(OC(F)(F)F)cc4)ccc3OCC2)cc1)C1CCOCC1`, the melting point was 187 to 188 °C.

For `COC(=O)c1ccc(Br)c(CBr)c1`, the melting point fell in the range of 100 to 101 °C.

Regarding `COC(=O)CC1CCNC1` (stereo unspecified), the melting point fell in the range of 68.5 to 69.5 °C.

For the compound `OC(c1cc(-c2ccc(Cl)cc2)c(-c2ccc(Cl)cc2)[nH]1)(C(F)(F)F)C(F)(F)F`, the melting point fell in the range of 144 to 145 °C.

For `CCCCNC(=O)C(C)(C)N=NC(C)(C)C(=O)NCCCC`, the melting point came out at 65 °C.

`CN(C)C=Cc1ccncc1C#N`: the melting point lay within 80 to 83 °C.

As for `CCCCC(=O)C(=Cc1ccc(Cl)cc1)n1cncn1`, the melting point fell in the range of 117 to 120 °C.

Compound `CNC(=O)NS(=O)(=O)c1cc(CCNC(=O)c2cc(Cl)ccc2OC)ccc1-c1ccco1` gave a melting point of 118 to 120 °C.

Consider `O=C(CCCN1CCC(=C(c2ccccc2)c2ccccc2)CC1)c1ccc(F)cc1`, for which the melting point was 111 to 114 °C.

In the case of `CCC(C)Nc1cc(-c2ccc(Cl)cc2)nc2nn(C)cc12` (stereo unspecified), the melting point fell in the range of 208 to 209 °C.

Regarding `COC(=O)c1ccc(NC(=O)C(N)c2ccc3c(c2)C(C)(C)CCC3(C)C)s1` (stereo unspecified), the melting point lay within 110 to 112 °C.

Compound `Brc1ccc(-c2ccc3ccccc3c2)cc1` returned a melting point of 121 to 123 °C.

In the case of `Cc1ccc(Br)cc1NC(=O)NCCCNCCCCl`, the melting point was in the range of 145 to 148 °C.

Consider `CSc1ccc(N)c([N+](=O)[O-])c1`, for which the melting point was in the range of 72 to 73 °C.

For the compound `CCCN1C(=O)N2C[C@@H](Cc3ccccc3)N=C2c2c1nc(Br)n2Cc1ccccc1`, the melting point fell in the range of 200 to 206 °C.

`O=C(NNC(=O)c1ccccc1C(F)(F)F)c1ccccc1Cl` came in with a melting point of 81.5 to 82.5 °C.

Turning to `CCCCCCCCCCCCC(C)COc1ccc(C(C)=O)o1` (stereo unspecified), the melting point lay in the range of 45 to 47 °C.

On to `N#CCc1cccc2c(-c3ccc(C(F)(F)F)cc3)nccc12`, for which the melting point was 122 to 123 °C.

`Cc1nc(Nc2ccccc2)sc1C(=O)c1sc(Nc2ccccc2)nc1C` returned a melting point of 194 to 196 °C.

`O=C(O)C1(c2ccc(C#Cc3ccccc3)cc2)CC1`: the melting point was 214 to 218 °C.

`CC(=O)NC(CCCCCCCCC(NC(C)=O)C1CCCCCCC1)C1CCCCCCC1` (stereo unspecified) gave a melting point of 144 to 149 °C.

With `COc1cc2oc(=O)c(CCN3CCN(c4ccccc4OC)CC3)c(C)c2cc1OC(C)C`, the melting point was in the range of 123 to 125 °C.

`O=C(Nc1ccc(-c2ncc(-c3ccc(NC(=O)C4CCCCCC4)cc3)[nH]2)cc1)c1ccc(Cl)cc1` had a melting point of 325 to 327 °C.

As to `COc1c(N2CC(C)C(N)C(C)C2)c(F)cc2c(=O)c(C(=O)O)cn(C3CC3)c12` (stereo unspecified), the melting point is 178 to 180 °C.

Regarding `Cc1ccc(C)n1CCNC(N)=O`, the melting point lay within 139 to 141 °C.

For the compound `Cc1c(C(=O)OC(C)C)sc(C(=O)OC(C)C)c1O`, the melting point lay within 87 to 89 °C.

As for `CC(=O)OC1CSC(Oc2cccnc2Br)C(OC(C)=O)C1OC(C)=O` (stereo unspecified), the melting point came out at 161 °C.

Take `N#CCCNC(=O)C1=C(C(=O)Nc2ccc(Cl)cc2F)CCCC1`: the melting point was 160 to 161 °C.

In turn, `NC(=O)Cc1cccc(-c2csc(N=C(N)N)n2)n1` gave a melting point of 254 °C.

As for `O=C(Nc1ccccc1N1CCc2ccccc21)c1ccco1`, the melting point lay in the range of 99 to 102 °C.

Regarding `CCOC(=O)CCCCCn1c(-c2ccccc2)c(-c2ccccc2)n(-c2ccccc2)c1=O`, the melting point was 104 to 106 °C.

In turn, `CC1(CO)Cc2nnc(-c3ccc(-c4ccccc4)cc3Cl)n2CCS1` (stereo unspecified) showed a melting point of 166 to 169 °C.

As for `CCOC(=O)COc1ccc(CCl)cc1OC`, the melting point was 64 to 66 °C.

As to `CC(=O)C(=O)N[C@H](CO[N+](=O)[O-])c1ccccc1`, the melting point lay within 76 to 77 °C.

In the case of `COc1ccc(CNc2cc(C(N)=O)c([N+](=O)[O-])cc2[N+](=O)[O-])cc1Cl`, the melting point was 180 to 182 °C.

For the origin of these results see a melting point compilation (Tetko et al.; mined from patent text by program, amines drawn as free bases though some values may be those of a salt).
